In data set [1] the target is T1, CDK1 (Homo sapiens, UniProt P06493).
T1 construct: purchased BPS
As to the kind of experiment: Kinase test in vitro (LANCE Ultra, Ulight-4EBP1). The format is biochemical. The text has this:
(§1) Recombinant CDK1, CCNB1 and CDK9, and CCNT were purchased from BPS; CDK2, CCNA1, CDK4, CCND1 and CDK6, and CCND1 were purchased from Invitrogen; CDK4, CycD3 and CDK6, and CycD3 were purchased from Carna. Adenosine triphosphate (ATP) was purchased from Life tech. Substrate Ulight-4EBP1 and the corresponding detection antibody were purchased from Perkinelmer. LANCE Ultra system from Perkinelmer is used as the detection system.
(§2) In the kinase test, a compound to be tested was 1:3 diluted for 8 gradient points and added into a reaction plate, and then an appropriate amount of recombinase was added. A buffer [50 mM HEPES pH7.5, 10 mM MgCl2, 3 mM MnCl2, 1 mM EGTA, 0.01% Tween-20, 1 mM TCEP] containing ATP, Ulight-4EBP1 premix at a predetermined concentration was subsequently added, and the kinase reaction began at room temperature. A test solution pre-mixed with 10 mM EDTA and detection antibody was added after a suitable reaction time, and then the fluorescence value was read on Tecan infinite pro after reacting for 1 hour at room temperature. The IC50 was calculated using a four-factor model fitting in a XLfit software.

Data set [2] has as its target T2, CDK2 (Homo sapiens, UniProt P24941).
T2 construct: purchased Invitrogen
As to the kind of experiment: Kinase test in vitro (LANCE Ultra, Ulight-4EBP1). The format is biochemical.
Excerpt: as §1, §2

Data set [3] deals with T3, CDK4 (Homo sapiens, UniProt P11802).
T3 construct: purchased Invitrogen or Carna
Description: Kinase test in vitro (LANCE Ultra, Ulight-4EBP1). The class given is biochemical.
Excerpt: as §1, §2

The target in data set [4] is T4, CDK6 (Homo sapiens, UniProt Q00534).
T4 construct: purchased Invitrogen or Carna
As to the kind of experiment: Kinase test in vitro (LANCE Ultra, Ulight-4EBP1). The class given is biochemical.
Excerpt: as §1, §2

A short description of data set [5]: Pharmacokinetics and brain distribution test. The class given is in vivo, SD rats. The settings on record: rats, oral 10 mg/kg. As for the experimental part:
Test Animals: healthy adult male SD rats (weight 210-230 g per rat, 12 rats, fasted overnight, fed 4 hours after dosing), provided by SLAC company; preparation of oral solution: 40.14 mg of compound P-53 was weighed and added into a clean tube, and 36.479 mL of 0.5% HPC-H (TCI, E6ZQA) in acetate buffer (PH4.5) was added into the tube. The mixture was then vortexed for 1-2 min. Then the solution was sonicated for 20-25 min and stirred for 20-25 min.
SD rats were administered via intragastric administration (10 mg/kg (10 mL/kg)); samples were collected at 0.5, 1, 2 and 4 hr after dosing (total 4 timepoints), wherein only plasma samples were collected continuously, and brain tissue and cerebrospinal fluid were collected at each time point.
Blood collection: The animal was restrained manually and at each time point collected approximately 150 μL blood via tail vein into a K2EDTA-containing tube. Within 15 minutes, the blood sample was put on wet ice and centrifuged to obtain plasma sample (2000 g, 5 min under 4° C.). […]
Analytical method: the plasma and brain of SD rats were used as matrix, and Glipizide was used as an internal standard. […] The drug concentration was determined by LC-MS/MS method, the pharmacokinetic parameters in the plasma, brain tissue, and cerebrospinal fluid of rats are shown in Table 8: […]

T1 sequence (P06493 whole entry): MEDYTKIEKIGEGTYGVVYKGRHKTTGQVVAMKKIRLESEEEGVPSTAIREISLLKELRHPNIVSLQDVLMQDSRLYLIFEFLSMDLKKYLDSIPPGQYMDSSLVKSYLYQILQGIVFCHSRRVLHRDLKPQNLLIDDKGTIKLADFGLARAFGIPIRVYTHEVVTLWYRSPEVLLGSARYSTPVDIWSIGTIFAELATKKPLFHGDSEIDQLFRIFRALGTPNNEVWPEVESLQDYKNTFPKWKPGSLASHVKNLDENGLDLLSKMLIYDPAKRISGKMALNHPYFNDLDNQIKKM
T1 sequence (P14635 whole entry partner): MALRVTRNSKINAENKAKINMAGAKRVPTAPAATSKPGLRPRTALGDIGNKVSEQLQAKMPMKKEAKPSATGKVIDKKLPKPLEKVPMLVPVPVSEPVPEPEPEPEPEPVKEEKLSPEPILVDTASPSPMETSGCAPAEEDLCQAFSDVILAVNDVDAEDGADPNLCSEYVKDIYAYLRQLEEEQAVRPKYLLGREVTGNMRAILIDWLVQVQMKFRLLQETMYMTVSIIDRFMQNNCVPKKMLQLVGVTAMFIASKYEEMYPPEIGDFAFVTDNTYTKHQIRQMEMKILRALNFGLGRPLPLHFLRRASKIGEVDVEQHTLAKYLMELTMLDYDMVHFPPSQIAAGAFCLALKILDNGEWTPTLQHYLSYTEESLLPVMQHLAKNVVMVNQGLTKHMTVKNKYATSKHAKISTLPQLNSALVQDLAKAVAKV
T3 sequence (P11802 whole entry): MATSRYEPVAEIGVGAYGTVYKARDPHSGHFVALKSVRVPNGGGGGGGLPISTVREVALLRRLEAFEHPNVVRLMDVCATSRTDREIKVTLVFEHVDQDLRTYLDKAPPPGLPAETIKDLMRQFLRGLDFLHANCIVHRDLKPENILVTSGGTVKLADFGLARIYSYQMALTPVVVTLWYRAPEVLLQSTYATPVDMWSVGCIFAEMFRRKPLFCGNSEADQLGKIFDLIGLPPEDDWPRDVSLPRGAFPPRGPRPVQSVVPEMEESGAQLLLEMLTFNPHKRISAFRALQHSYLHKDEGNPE
T3 sequence (P24385 whole entry partner): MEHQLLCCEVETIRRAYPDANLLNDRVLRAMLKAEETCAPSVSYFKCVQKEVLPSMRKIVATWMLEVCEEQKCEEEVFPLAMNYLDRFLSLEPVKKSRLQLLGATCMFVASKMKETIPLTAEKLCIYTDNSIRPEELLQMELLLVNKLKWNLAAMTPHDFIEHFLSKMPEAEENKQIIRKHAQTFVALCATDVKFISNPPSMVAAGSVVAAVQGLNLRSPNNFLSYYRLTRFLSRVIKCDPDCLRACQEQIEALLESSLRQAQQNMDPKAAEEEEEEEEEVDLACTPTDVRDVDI
T4 sequence (Q00534 whole entry): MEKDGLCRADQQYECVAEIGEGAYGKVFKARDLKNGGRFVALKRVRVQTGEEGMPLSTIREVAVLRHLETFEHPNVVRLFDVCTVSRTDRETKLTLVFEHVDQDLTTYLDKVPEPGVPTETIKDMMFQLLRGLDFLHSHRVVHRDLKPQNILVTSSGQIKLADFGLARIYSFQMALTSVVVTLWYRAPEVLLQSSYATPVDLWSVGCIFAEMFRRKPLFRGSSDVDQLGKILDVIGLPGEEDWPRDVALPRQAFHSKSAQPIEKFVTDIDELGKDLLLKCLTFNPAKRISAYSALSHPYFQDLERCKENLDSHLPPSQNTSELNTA
T4 sequence (P24385 whole entry partner): as the sequence (P24385 whole entry partner) above

For the compound `CCN1CCN(Cc2ccc(Nc3ncc4c(n3)-c3c(nc(C5CC5)n3C(C)C)C4)nc2)CC1` [Free base of compound of formula X, 2-cyclopropyl-N-(5-((4-ethylpiperazin-1-yl)methyl)pyridin-2-yl)-3-isopropyl-3,8-dihydroimidazo[4′,5′,4,5]cyclopenta[1,2-d]pyrimidin-5-amine], in data set [1], half-maximal inhibition (IC50) was put at 6.09 µM and the “inhibitory activity against CDK1 (in words)” value is reported as “weak inhibitory activity”. Also, in data set [2], 8.75 µM corresponded to half-maximal inhibition (IC50) and the “inhibitory activity against CDK2 (in words)” value is listed as “weak inhibitory activity”. For the same compound, in data set [3], inhibition was half-maximal at 0.01 µM (IC50) and the “inhibitory activity against CDK4 (in words)” value is “strong inhibitory activity”. In addition, in data set [4], it took 0.057 µM to reach half-maximal inhibition (IC50) and the “inhibitory activity against CDK6 (in words)” value is recorded as “strong inhibitory activity”. Further, the “brain permeability (in words)” value in data set [5] was “can cross the blood-brain barrier”.

These data come from patent US20210214358A1, “CDK4/6 INHIBITOR AND PHARMACEUTICALLY ACCEPTABLE SALT AND POLYMORPH THEREOF AND USE THEREOF” (SHANGHAI HAIYAN PHARMACEUTICAL TECHNOLOGY CO., LTD., priority 2018, published 2021).
